Measured values published in patent US20150191469A1, “COMPOUNDS AND METHODS FOR TREATING HIV” (priority 2012, published 2015).

The molecules below were run on HIV (assay: MT4 assay: antiviral HIV activity (cell protection, cell titer glo readout at 96 hours)). Details: Human immunodeficiency virus 1, MT4, 96 h, MT4 cells, cell titer glo readout at 96 hours, 10 point dose response; read-out: HIV MT4 Assay IC50.
Format: cell-based
In short: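 MT-4 cells infected with HIV, with inhibition readout by CellTiter-Glo luminescence at 96 h relative to no-compound control. Cytotoxicity measured in parallel under the same conditions. IC50 from a 10-point, 3-4-fold dilution series spanning >1000-fold, fitted with a four-parameter logistic equation.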

| IC50 [µM] | SMILES |
| --- | --- |
| 0.0414 | Cc1ccc(N2CCN(C(=O)c3cc4c(-c5cc(F)c6c(c5C)CCCO6)c([C@H](OC(C)(C)C)C(=O)O)c(C)nc4n3C)CC2)cc1 [Example 224] |
| 0.436 | Cc1nc2c(cc(C(=O)N3CCN(C4CCOCC4)CC3)n2C)c(-c2cc(F)c3c(c2C)CCCO3)c1[C@H](OC(C)(C)C)C(=O)O [Example 225] |
| 0.0028 | Cc1nc2c(cc(C(=O)NCc3ccc(N(C)C)cc3)n2C)c(-c2cc(F)c3c(c2C)CCCO3)c1[C@H](OC(C)(C)C)C(=O)O [Example 227] |
| 0.136 | CNC(=O)c1cc2c(-c3cc(F)c4c(c3C)CCCO4)c([C@H](OC(C)(C)C)C(=O)O)c(C)nc2n1C [Example 228] |
| 0.0122 | Cc1nc2c(cc(C(=O)NCC3CC3)n2C)c(-c2cc(F)c3c(c2C)CCCO3)c1[C@H](OC(C)(C)C)C(=O)O [Example 229] |
| 0.0047 | Cc1nc2c(cc(C(=O)NCc3ccc(F)cc3)n2C)c(-c2cc(F)c3c(c2C)CCCO3)c1[C@H](OC(C)(C)C)C(=O)O [Example 230] |
| 0.0487 | COCCNC(=O)c1cc2c(-c3cc(F)c4c(c3C)CCCO4)c([C@H](OC(C)(C)C)C(=O)O)c(C)nc2n1C [Example 231] |
| 0.002 | Cc1nc2c(cc(C(=O)NCCC(C)(C)C)n2C)c(-c2cc(F)c3c(c2C)CCCO3)c1[C@H](OC(C)(C)C)C(=O)O [Example 232] |
| 0.0036 | COc1ccc(CNC(=O)c2cc3c(-c4cc(F)c5c(c4C)CCCO5)c([C@H](OC(C)(C)C)C(=O)O)c(C)nc3n2C)cc1 [Example 233] |
| 0.0447 | Cc1nc2c(cc(C(=O)NC3CC3)n2C)c(-c2cc(F)c3c(c2C)CCCO3)c1[C@H](OC(C)(C)C)C(=O)O [Example 234] |
| 0.0324 | CSCCNC(=O)c1cc2c(-c3cc(F)c4c(c3C)CCCO4)c([C@H](OC(C)(C)C)C(=O)O)c(C)nc2n1C [Example 235] |
| 4.14 | Cc1nc2c(cc(C(=O)NCCS(C)(=O)=O)n2C)c(-c2cc(F)c3c(c2C)CCCO3)c1[C@H](OC(C)(C)C)C(=O)O [Example 236] |
| 0.0043 | Cc1nc2c(cc(C(=O)NCC3CCCCC3)n2C)c(-c2cc(F)c3c(c2C)CCCO3)c1[C@H](OC(C)(C)C)C(=O)O [Example 237] |
| 3.86 | Cc1nc2c(cc(C(=O)NCCO)n2C)c(-c2cc(F)c3c(c2C)CCCO3)c1[C@H](OC(C)(C)C)C(=O)O [Example 238] |
| 0.0065 | CCCCNC(=O)c1cc2c(-c3cc(F)c4c(c3C)CCCO4)c([C@H](OC(C)(C)C)C(=O)O)c(C)nc2n1C [Example 239] |
| 0.37 | Cc1nc2c(cc(C(=O)NCCN3CCOCC3)n2C)c(-c2cc(F)c3c(c2C)CCCO3)c1[C@H](OC(C)(C)C)C(=O)O [Example 240] |
| 0.0212 | Cc1nc2c(cc(C(=O)NCCC3CCOCC3)n2C)c(-c2cc(F)c3c(c2C)CCCO3)c1[C@H](OC(C)(C)C)C(=O)O [Example 241] |
| 0.0793 | Cc1nc2c(cc(C(=O)NC(C)(C)C)n2C)c(-c2cc(F)c3c(c2C)CCCO3)c1[C@H](OC(C)(C)C)C(=O)O [Example 242] |
| 0.03 | Cc1nc2c(cc(C(=O)NCC(C)(C)C)n2C)c(-c2cc(F)c3c(c2C)CCCO3)c1[C@H](OC(C)(C)C)C(=O)O [Example 243] |
| 0.0253 | Cc1nc2c(cc(C(=O)NC(C)C)n2C)c(-c2cc(F)c3c(c2C)CCCO3)c1[C@H](OC(C)(C)C)C(=O)O [Example 244] |

| IC50 [µM] | SMILES |
| --- | --- |
| 0.0225 | Cc1nc2c(cc(C(=O)NCCC(F)(F)F)n2C)c(-c2cc(F)c3c(c2C)CCCO3)c1[C@H](OC(C)(C)C)C(=O)O [Example 245] |
| 0.0151 | Cc1nc2c(cc(C(=O)NCC(C)C)n2C)c(-c2cc(F)c3c(c2C)CCCO3)c1[C@H](OC(C)(C)C)C(=O)O [Example 246] |
| 18.1 | Cc1nc2c(cc(C(=O)NCCCN(C)C)n2C)c(-c2cc(F)c3c(c2C)CCCO3)c1[C@H](OC(C)(C)C)C(=O)O [Example 247] |
| 3.05 | Cc1nc2c(cc(C(=O)NCCN3CCCC3=O)n2C)c(-c2cc(F)c3c(c2C)CCCO3)c1[C@H](OC(C)(C)C)C(=O)O [Example 248] |
| 0.0121 | Cc1nc2c(cc(C(=O)NC3CCCCC3)n2C)c(-c2cc(F)c3c(c2C)CCCO3)c1[C@H](OC(C)(C)C)C(=O)O [Example 249] |
| 0.0401 | Cc1nc2c(cc(C(=O)N3CCCC3)n2C)c(-c2cc(F)c3c(c2C)CCCO3)c1[C@H](OC(C)(C)C)C(=O)O [Example 250] |
| 0.0283 | Cc1nc2c(cc(C(=O)N3CCCCC3)n2C)c(-c2cc(F)c3c(c2C)CCCO3)c1[C@H](OC(C)(C)C)C(=O)O [Example 251] |
| 0.0652 | COCCCNC(=O)c1cc2c(-c3cc(F)c4c(c3C)CCCO4)c([C@H](OC(C)(C)C)C(=O)O)c(C)nc2n1C [Example 252] |
| 0.0019 | Cc1nc2c(cc(C(=O)NCc3c(Cl)cccc3Cl)n2C)c(-c2cc(F)c3c(c2C)CCCO3)c1[C@H](OC(C)(C)C)C(=O)O [Example 253] |
| 0.0038 | Cc1nc2c(cc(C(=O)NCc3c(F)cccc3F)n2C)c(-c2cc(F)c3c(c2C)CCCO3)c1[C@H](OC(C)(C)C)C(=O)O [Example 254] |
| 0.0038 | Cc1nc2c(cc(C(=O)NCc3cccc(Cl)c3)n2C)c(-c2cc(F)c3c(c2C)CCCO3)c1[C@H](OC(C)(C)C)C(=O)O [Example 255] |
| 0.0345 | Cc1nc2c(cc(C(=O)N(C)C3CCCCC3)n2C)c(-c2cc(F)c3c(c2C)CCCO3)c1[C@H](OC(C)(C)C)C(=O)O [Example 256] |
| 0.002 | Cc1nc2c(cc(C(=O)NCc3c(F)cccc3Cl)n2C)c(-c2cc(F)c3c(c2C)CCCO3)c1[C@H](OC(C)(C)C)C(=O)O [Example 257] |
| 0.0314 | Cc1nc2c(cc(C(=O)N3CCC(C)(C)CC3)n2C)c(-c2cc(F)c3c(c2C)CCCO3)c1[C@H](OC(C)(C)C)C(=O)O [Example 258] |
| 0.0019 | Cc1nc2c(cc(C(=O)NCCC3CCCCC3)n2C)c(-c2cc(F)c3c(c2C)CCCO3)c1[C@H](OC(C)(C)C)C(=O)O [Example 259] |
| 0.0019 | Cc1nc2c(cc(C(=O)NCc3ccc4c(c3)OCO4)n2C)c(-c2cc(F)c3c(c2C)CCCO3)c1[C@H](OC(C)(C)C)C(=O)O [Example 260] |
| 0.0468 | CCN(C(=O)c1cc2c(-c3cc(F)c4c(c3C)CCCO4)c([C@H](OC(C)(C)C)C(=O)O)c(C)nc2n1C)C1CCCCC1 [Example 261] |
| 0.103 | Cc1nc2c(cc(C(=O)NCCc3cccnc3)n2C)c(-c2cc(F)c3c(c2C)CCCO3)c1[C@H](OC(C)(C)C)C(=O)O [Example 262] |
| 0.0031 | Cc1nc2c(cc(C(=O)NCc3ccc(Cl)cc3)n2C)c(-c2cc(F)c3c(c2C)CCCO3)c1[C@H](OC(C)(C)C)C(=O)O [Example 263] |
| 0.454 | Cc1nc2c(cc(C(=O)NCC3COC3)n2C)c(-c2cc(F)c3c(c2C)CCCO3)c1[C@H](OC(C)(C)C)C(=O)O [Example 264] |

| IC50 [µM] | SMILES |
| --- | --- |
| 0.0048 | Cc1nc2c(cc(C(=O)NCc3cccc(F)c3)n2C)c(-c2cc(F)c3c(c2C)CCCO3)c1[C@H](OC(C)(C)C)C(=O)O [Example 265] |
| 0.145 | Cc1nc2c(cc(C(=O)NCc3cccnc3)n2C)c(-c2cc(F)c3c(c2C)CCCO3)c1[C@H](OC(C)(C)C)C(=O)O [Example 266] |
| 0.0261 | Cc1nc2c(cc(C(=O)NCc3ccccn3)n2C)c(-c2cc(F)c3c(c2C)CCCO3)c1[C@H](OC(C)(C)C)C(=O)O [Example 267] |
| 0.0034 | Cc1nc2c(cc(C(=O)NCCC(C)C)n2C)c(-c2cc(F)c3c(c2C)CCCO3)c1[C@H](OC(C)(C)C)C(=O)O [Example 268] |
| 0.0805 | COCCN(CCOC)C(=O)c1cc2c(-c3cc(F)c4c(c3C)CCCO4)c([C@H](OC(C)(C)C)C(=O)O)c(C)nc2n1C [Example 269] |
| 0.112 | Cc1nc2c(cc(C(=O)N(C)C)n2C)c(-c2cc(F)c3c(c2C)CCCO3)c1[C@H](OC(C)(C)C)C(=O)O [Example 270] |
| 0.0016 | Cc1nc2c(cc(C(=O)NC3Cc4ccccc4C3)n2C)c(-c2cc(F)c3c(c2C)CCCO3)c1[C@H](OC(C)(C)C)C(=O)O [Example 271] |
| 0.294 | Cc1nc2c(cc(C(=O)NCCN3CCCCC3)n2C)c(-c2cc(F)c3c(c2C)CCCO3)c1[C@H](OC(C)(C)C)C(=O)O [Example 272] |
| 0.939 | Cc1nc2c(cc(C(=O)NCCCN3CCCC3=O)n2C)c(-c2cc(F)c3c(c2C)CCCO3)c1[C@H](OC(C)(C)C)C(=O)O [Example 273] |
| 0.208 | Cc1nc2c(cc(C(=O)NCc3ccncc3)n2C)c(-c2cc(F)c3c(c2C)CCCO3)c1[C@H](OC(C)(C)C)C(=O)O [Example 274] |
| 1 | Cc1nc2c(cc(C(=O)NCCN3CCCC3)n2C)c(-c2cc(F)c3c(c2C)CCCO3)c1[C@H](OC(C)(C)C)C(=O)O [Example 275] |
| 0.01 | Cc1nc2c(cc(C(=O)NCC3CCC3)n2C)c(-c2cc(F)c3c(c2C)CCCO3)c1[C@H](OC(C)(C)C)C(=O)O [Example 276] |
| 0.1 | Cc1nc2c(cc(C(=O)N3CCN(C(C)C)CC3)n2C)c(-c2cc(F)c3c(c2C)CCCO3)c1[C@H](OC(C)(C)C)C(=O)O [Example 277] |
| 0.11 | Cc1nc2c(cc(C(=O)N3CCC(N4CCCCC4)CC3)n2C)c(-c2cc(F)c3c(c2C)CCCO3)c1[C@H](OC(C)(C)C)C(=O)O [Example 278] |
| 0.01 | COC(C)(C)CCNC(=O)c1cc2c(-c3cc(F)c4c(c3C)CCCO4)c([C@H](OC(C)(C)C)C(=O)O)c(C)nc2n1C [Example 279] |
| 0.4 | Cc1nc2c(cc(C3CCC(C)(C)CC3)n2C)c(-c2cc(F)c3c(c2C)CCCO3)c1[C@H](OC(C)(C)C)C(=O)O [Example 283] |
| 0.0157 | Cc1nc2c(cc(CCc3ccnc4ccccc34)n2C)c(-c2cc(F)c3c(c2C)CCCO3)c1[C@H](OC(C)(C)C)C(=O)O [Example 284] |
| 0.0466 | Cc1nc2c(cc(CCc3ccncc3)n2C)c(-c2cc(F)c3c(c2C)CCCO3)c1[C@H](OC(C)(C)C)C(=O)O [Example 285] |
| 0.015 | Cc1nc2c(cc(CCc3ccc4cnn(C)c4c3)n2C)c(-c2cc(F)c3c(c2C)CCCO3)c1[C@H](OC(C)(C)C)C(=O)O [Example 286] |
| 0.171 | Cc1nc2c(cc(CN3CCCN(C4COC4)CC3)n2C)c(-c2cc(F)c3c(c2C)CCCO3)c1[C@H](OC(C)(C)C)C(=O)O [Example 289] |
